The test system of one test is relapsed/refractory AML. Nature of the test: Independent dataset of 54 relapsed/refractory AML patients treated with tipifarnib. The class given is in vivo, human. Particulars: 54 relapsed/refractory AML patient samples. As to the method: External validation of the TSP classifier was performed in an independent microarray dataset comprising of 54 relapsed/refractory AML patient samples. A diagnostic assay that predicts likely response to a cancer therapy should have a high sensitivity (and negative predictive value) since it is important to capture as many potential responders as possible. Therefore, to define an appropriate cutoff for testing the TSP classifier the need to obtain a high sensitivity of predicting responders while maintaining an acceptable level of specificity was considered. In the training set, the level of specificity that could be achieved ranged from approximately 30% to 100% when the sensitivity was set at 100% to 80%, respectively. To ensure the classifier would predict as many responders as possible a conservative cutoff that provided a specificity of approximately 60% in the training set was tested. When this cutoff was applied to the independent testing set of relapsed/refractory AML, the RASGRP1:APTX gene classifier stratified responders with 92% NPV and 27.6% PPV (compared to 18.5% prevalence) (FIG. 3C). The associated odds ratio for being a responder was 4.38.

The test system of test [1] is previously untreated, poor-risk AML. Kind of test: Phase 2 study of tipifarnib in older adults with previously untreated, poor-risk AML (clinical response, overall survival). The class given is in vivo, human. The source says: In an exemplary example, bone marrow samples are collected from an open label, multicenter, non-comparative phase 2 study investigating the efficacy and safety of farnesyltransferase inhibition with tipifarnib (R115777, ZARNESTRA®) in older adults with previously untreated, poor-risk AML.
Briefly, HI was defined as any bone marrow blast count less than 5% or a reduction in bone marrow blasts by at least half. Progressive disease (PD) was defined as either >50% increase in bone marrow or circulating blast % from baseline, or new appearance of circulating blasts (on at least 2 consecutive occasions). Stable disease (SD) was defined as any response not meeting CR, PR, HI, or PD criteria.
This study examined gene expression profiles of leukemic bone marrow samples from patients enrolled in a Phase 2 clinical trial of the farnesyltransferase inhibitor tipifarnib in elderly patients with previously untreated poor-risk acute myelogenous leukemia. Lancet et al. (2006). Bone marrow from 67 patients was collected before treatment with tipifarnib and leukemic myeloid cells were enriched by Ficoll-density centrifugation (Table 1). Good quality total RNA from 13 responders (9 CR, 4 HI), 8 stable disease and 13 progressive disease patients was amplified, labeled, and hybridized to the Affymetrix U133A GeneChip. A total of 30 samples were evaluated by qPCR for validation of specific genes and 32 samples were evaluated for N-RAS mutational status.

Where [2] appears, read: Kaplan Meier analysis, RASGRP1 classifier, newly diagnosed AML (FIG. 1B).
Setting [3] is: qPCR RASGRP1:APTX classifier, cut-point 0, 30 patients (FIG. 3C).

In the test on relapsed/refractory AML, `Cn1cncc1[C@@](N)(c1ccc(Cl)cc1)c1ccc2c(c1)c(-c1cccc(Cl)c1)cc(=O)n2C` [tipifarnib] came in with a prevalence of responders of 18.5%. Besides, in test [1] (All treated patients (n=158)), the “CR, (%)” value is reported as “(14) %”; the “CR, no.” value was found to be 22; the “HI, (%)” value is recorded as “(8) %”; the “HI, no.” value is 12. In test [1] (All treated patients (n=158)), the “PD, (%)” value is “(37) %”; the “PD, no.” value is 58; the “PR, (%)” value is reported as “(2) %”; the “PR, no.” value is 3. In test [1] (setting [2]), the “median overall survival of the responders” value was 386 days and the “median overall survival of those with progressive disease” value was determined as 68 days. In test [1] (PGx profiled patients (n=67)), the “CR, (%)” value is reported as “(21) %”; the “CR, no.” value is on record as 14; the “HI, (%)” value is “(10) %”; the “HI, no.” value came out at 7. Besides, in test [1] (PGx profiled patients (n=67)), the “PD, (%)” value was “(44) %”; the “PD, no.” value is 30; the “PR, (%)” value is “(2) %”; the “PR, no.” value is listed as 1. Also, in test [1] (setting [3]), the “median overall survival of the predicted resistant patients” value is 82 days and the “median overall survival of those classified as responders” value amounted to 295 days.

(Values after patent publication US12274711B2, “Method of determining Acute Myeloid Leukemia response to treatment with farnesyltransferase inhibitors” (Janssen Pharmaceutica NV, priority 2010, dated 2025).)
